Test results as given in patent US20240374546A1, “USES AND METHODS FOR PROMOTING INCREASED MITOCHONDRIAL MASS AND FUNCTION” (Brightseed, Inc., priority 2022, published 2024).
“Also recorded” adds a separate entry of the source.

Tests used:
[1] = Liver profile analysis of blood (VetScan); format: in vivo, mouse
Procedure: Mice were anesthetized and 100 μL of whole blood was collected via retro-orbital bleeding in lithium heparin blood collection tubes and transferred to single use VetScan mammalian liver profile reagent rotors. The levels of multiple analytes, including Alkaline Phosphatase (ALP), Alanine Aminotransferase (ALT), Gamma Glutamyl Transferase (GGT), Bile Acids (BA), TBIL (Total Bilirubin), Albumin (ALB), Blood Urea Nitrogen […] (BUN), Total Cholesterol (CHOL) were quantified using a VetScan VS2 Chemistry Analyzer (Abaxis North America, USA).

[2] = Free fatty acid quantification in serum; format: in vivo, mouse; conditions: HFD+NCT vs HFD, 10 weeks
Procedure: Blood samples were collected from dextrose injected mice and centrifuged to collect serum samples. The serum FFA level was measured according to manufacturer's instructions using a Free Fatty Acid Quantification Colorimetric/Fluorometric Kit (Cat #K612, BioVision, USA). Fold change was calculated by normalizing to values from mice fed NC.

nitric oxide (NO) = assay: Nitric oxide assay, mouse liver; format: in vivo; conditions: HFD+NCT vs HFD, normalized to liver weight
Procedure: T6PNE cells were maintained in RPMI (5.5 mM glucose, Corning) supplemented with 10% fetal bovine serum (FBS, Sigma-Aldrich) and 1% penicillin-streptomycin (pen-strep, Gibco) in 5% CO2 at 37° C. Cells were treated with […] palmitate plus 0 or 15 μM NCT for 3 days in 10 cm plates and harvested with 500 μl PBS. For tissue specimens, snap frozen mouse liver was weighed and homogenized with PBS. NO was measured with the QuantiChrom Nitric Oxide Assay kit (D2NO-100, BioAssay Systems). Homogenized samples (150 μl) were processed for deproteination with 8 μl ZnSO4 and 8 μl NaOH. For normalization, an aliquot of samples from T6PNE cells was taken for BCA assay before deproteination. Samples and standard from kit incubated with reagents for 20 min at 60° C. and measured OD 540 nm.

[3] = Oil red O staining of liver sections; format: in vivo, mouse; conditions: HFD+NCT vs HFD, 10 weeks
Procedure: Oil red O staining was performed as described previously (34). Slides containing frozen liver tissue sections from mice were air dried for 10-20 min followed by rehydration in distilled water. Sections were immersed in absolute propylene glycol (Cat #151957, MP Biomedicals, LLC, USA) for 2 min followed by 0.5% in Oil red O solution (Cat #K043, Poly Scientific R&D, USA) for 2 hours. Slides were then differentiated in 85% propylene glycol solution, washed with dH2O for 2 hours, and mounted using glycerin jelly mounting medium. All slides were scanned at a magnification of 20× using the Aperio Scanscope FL system (Aperio Technologies Inc., Vista, CA, USA). The liver area stained with oil red O was measured using image J software as described, with some modifications as follow, Oil red O-stained liver images were opened in Image J software. Using the Analyze>Set Scale command, the scale bar of the images was set to 200 um. RGB images were then converted into gray scale images using the Image>Type>RGB Stack command and were split into red, blue and green channels. Using the Image >Adjust>Threshold command, the threshold was manually set to highlight the Oil red O stained lipid droplets in the green channel. […] Fold change was calculated by normalizing the values to images from mice fed normal chow.

Sirt3 mRNA = assay: qPCR mouse liver, Sirtuin3 mRNA; format: in vivo; conditions: HFD+NCT vs HFD
Procedure: (§1) Total RNA was isolated from liver tissues and primary human hepatocytes using Trizol (Invitrogen). cDNA was amplified using 3 μg of total RNA using qScript cDNA SuperMix (Quanta BioSciences, Beverly, MA, USA). Quantitative real time PCR (RT-PCR) analysis was performed using SYBR® Select Master Mix (Applied Biosystems) and an ABI 7900HT thermal cycler (Applied Biosystems, Thermo Fisher Scientific). Ct values were normalized to 18s rRNA and are expressed as fold change over samples from mice fed NC or cultured human hepatocytes without NCT.

PPARGC1A (PGC1α) = assay: Western blot, mouse liver, PPARGC1A; format: in vivo; conditions: ten weeks of oral NCT
Procedure: Mouse liver extracts were prepared by incubation in RIPA buffer (Invitrogen) containing protease inhibitors (Calbiochem, San Diego, CA). Protein was quantified by BCA assay (Thermo Scientific). Protein ([…] for cytochrome C) was separated on 12% or 16% Tri-Glycine gels (Invitrogen) and transferred to Immobilon P membrane (0.2 μm pore size, Millipore). After 1 hour in phosphate-buffered saline-Tween (PBST) with 3% milk, membranes were incubated with antibodies to PPARGC1A(PGC1α) (Cat #NBP1-04676, Novus, 1:1000), SDHA XP (Cat #11998, Cell Signaling 1:1000), or Cytochrome C (Cat #4280, Cell Signaling 1:500), followed by secondary antibody conjugated to horseradish peroxidase (1:5000, Jackson Immune or Cell Signaling). […] After detection, membrane was incubated with Ponceau S solution (Sigma) for 1 hr for normalization to loaded protein.

IL-1P mRNA = assay: qPCR mouse liver, IL-1β mRNA; format: in vivo; conditions: HFD+NCT vs HFD
Procedure: as §1

Parp1 mRNA = assay: qPCR mouse liver, Parp1 mRNA; format: in vivo; conditions: HFD+NCT vs HFD
Procedure: as §1

total cellular NAD = assay: Total NAD level in liver lysate; format: in vivo, mouse; conditions: HFD+NCT vs HFD
Procedure: Total NAD level in liver lysate was analyzed according to manufacturer's instructions using a calorimetric NAD+/NADH assay kit (Cat #MET-5014, Cell Biolabs, Inc. USA)

[4] = test system: fatty acid oxidation (FAO); assay: Fatty acid oxidation assay in liver lysate; format: in vivo, mouse; conditions: HFD+NCT vs HFD
Procedure: FAO in liver lysate was measured according to manufacturer's instructions using a calorimetric assay kit (Cat #E-141, Biomedical Research Service Centre, State University of New York, Buffalo, NY).
The large weight difference between the HFD and HFD+NCT groups in conjunction with decreased subcutaneous and hepatic adiposity was striking. There are only two routes of fat elimination; in the stool by malabsorption, which it was ruled out (FIG. 1E) and by oxidation. Thus, it was hypothesized that NCT was inducing an increase in FAO. Quantification of FAO was done using an assay that measures NADH by the conversion of iodonitrotetrazolium (INT) to INT-Formazan mediated by the NADH-requiring enzyme diaphorase. Performing the assay in the presence and absence of added octanoyl-CoA, which is converted through fatty acid β-oxidation to acetyl-CoA with conversion of NAD+ to NADH, provides specificity for FAO. The level of fatty acid oxidation is determined as the INT-formazan level in the presence of octanoyl CoA minus the level in the absence of octanoyl CoA.

Parp2 mRNA = assay: qPCR mouse liver, Parp2 mRNA; format: in vivo; conditions: HFD+NCT vs HFD
Procedure: as §1

SMILES: O=C(/C=C/c1ccc(O)c(O)c1)NCCc1ccc(O)cc1 [NCT, N-transcaffeoyltyramine]
- other components of the liver profile panel ([1]; HFD versus HFD+NCT): no difference
- blood ALP ([1]; HFD+NCT vs HFD): unchanged
- blood ALT level ([1]; HFD+NCT vs HFD): reduced; also recorded: significantly decreased
- circulating free fatty acid (FFA) [2]: no difference
- nitric oxide (NO) in liver (nitric oxide (NO)): decreased
- Oil Red O staining of liver [3]: decreased Oil Red O staining
- Sirt3 mRNA in mouse liver (effect of HFD) (Sirt3 mRNA): almost completely reversed
- PPARGC1A protein in mouse liver (PPARGC1A (PGC1α)): increased
- ILI p expression (FIG. 5C, mouse liver) (IL-1P mRNA): not significantly changed
- Parp1 mRNA level (Parp1 mRNA): not modulated
- total cellular NAD in liver (total cellular NAD): substantial increase
- FAO activity in the presence of octanoyl CoA [4]: increase
- baseline activity in the absence of octanoyl CoA [4]: increase
- overall FAO activity (+octanoyl CoA minus −octanoyl CoA) [4]: unchanged
- Parp2 mRNA level (Parp2 mRNA): not modulated
